Experimental findings from patent US20060063784A1, “Method of using substituted pyrazolo [1,5-a] pyrimidines” (priority 2004, published 2006) are described below.

For one assay, the system named is 80S14 (p21-deficient) cells. The assay is described as follows: Cytotoxicity assay using isogenic cell lines: IC50 in 80S14 (p21-deficient) cells, SRB. Format: cell-based, human. The following applies: 80S14 (p21-deficient) cells, 5 days, SRB; class symbols; read-out: IC50 for 80S14. Put shortly:
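IC50 is the concentration halving proliferation relative to untreated controls, read from SRB absorbance (560 nm) after TCA fixation. Test agent dilutions (5 pM–50 μM or 170 pg/ml–10 μg/ml) were left on p21-deficient 80S14 cells (12,000/well, pre-incubated overnight) for 5 days at 37 °C.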
As for `CCOC(=O)c1cnn2c(-c3cccc(NC(=O)C4CCC4)c3)ccnc12` [Example 240, Ethyl 7-[3-[(cyclobutylcarbonyl)amino]phenyl]-pyrazolo[1,5-a]pyrimidine-3-carboxylic acid], the IC50 was 10 to 50 µM.

Staying with this assay, now noted: 80S14 p21-deficient cells, 5 days incubation, SRB; read-out: IC50 for 80SI4.
In the case of `O=C(c1cccs1)c1cnn2c(-c3cccc(NC(=O)C45CC6CC(CC(C6)C4)C5)c3)ccnc12` [Example 53, N-{3-[3-(thien-2-ylcarbonyl)pyrazolo[1,5-a]pyrimidin-7-Yl]phenyl}adamantine-1-carboxamide], the IC50 is under 1 µM.
Still for that read-out and setting: next, `O=C(Cc1cccs1)Nc1cccc(-c2ccnc3c(C(=O)c4cccs4)cnn23)c1` [Example 66]: under 1 µM.
The same measure, in the same setting: the figure for `CC(C)C[C@H](N)C(=O)Nc1cccc(-c2ccnc3c(C(=O)c4cccs4)cnn23)c1` [Example 79, N-1-{3-[3-(thien-2-ylcarbonyl)pyrazolo[1,5-a]pyrimidin-7-yl]phenyl}-L-leucinamide] is 10 to 50 µM; for `C/C=C/C(=O)Nc1cccc(-c2ccnc3c(C(=O)c4cccs4)cnn23)c1` [Example 149, (2E)-N-{3-[3-(thien-2-ylcarbonvl)pyrazolo[1,5-a]pyrimidin-7-yl]phenyl}but-2-enamide] it is 1 to 10 µM.

Still in this assay, the particulars now being: Homo sapiens, 80S14, 120 h, read-out: IC50 for 80S14 (uM).
`CC(C)OC(=O)Nc1cccc(-c2ccnc3c(C(=O)c4ccco4)cnn23)c1` [Example 299, Isopropyl 3-[3-(2-furoyl)pyrazolo[1,5-a]pyrimidin-7-yl]phenylcarbamate]: the IC50 is under 1 µM.

The assay is the same for the next values; noted with them: Homo sapiens, 80S14, 120 h, read-out: IC50 for 80SI4 (uM).
Regarding `CC(C)OC(=O)Nc1cccc(-c2ccnc3c(C(=O)c4cccs4)cnn23)c1` [Example 15, isopropyl 3-[3-(thien-2-ylcarbonyl)pyrazolo[1,5-a]pyrimidin-7-yl]phenylcarbamate], the IC50 is under 1 µM.

Still in this assay, the particulars now being: Homo sapiens, 120 h; 80S14 (p21-deficient) cells, 5 days, SRB; class symbols; read-out: IC50 for 80S14.
Consider `O=C(Nc1cccc(-c2ccnc3c(C(=O)c4cccs4)cnn23)c1)c1ccc(Cl)cc1Cl` [Example 289, 2,4-Dichloro-N-{3-[3-(2-thienylcarbonyl)pyrazolo[1,5-a]pyrimidin-7-yl]phenyl}benzamide], for which the IC50 is 1 to 10 µM.
On the same count and under the same terms, the figure for `CC(C)COC(=O)Nc1cccc(-c2ccnc3c(-c4cccs4)cnn23)c1` [Example 407, Isobutyl 3-(3-thien-2-ylpyrazolo[1,5-a]pyrimidin-7-yl)phenylcarbamate] is 1 to 10 µM; for `O=C(c1cccs1)c1cnn2c(-c3cccc(F)c3)ccnc12` [Example 225, [7-(3-Fluorophenyl)pyrazolo[1,5-a]-pyrimidin-3-yl}-2-thienyl-methanone] it is 10 to 50 µM; for `CNc1cccc(-c2ccnc3c(C(=O)c4cccs4)cnn23)c1` [Example 266, [7-[3-(Methylamino)phenyl]pyrazolo[1,5-a]pyrimidin-3-yl]-2-thienyl-methanone] it is 1 to 10 µM.
On the same count and under the same terms, the figure for `O=C(Nc1cccc(-c2ccnc3c(C(=O)c4cccs4)cnn23)c1)c1cccc(Br)c1` [Example 286, 3-Bromo-N-{3-[3-(2-thienylcarbonyl)pyrazolo[1,5-a]pyrimidin-7-yl]phenyl}benzamide] is under 1 µM; for `CCCC(C)CNc1cccc(-c2ccnc3c(C(=O)c4cccs4)cnn23)c1` (stereo not drawn) [Example 418, (7-{3-[(2-Methylpentyl)amino]phenyl}pyrazolo[1,5-a]pyrimidin-3-yl)(thien-2-yl)methanone] it is 1 to 10 µM.
Still for that read-out and setting: the figure for `Cc1ccc(C(=O)c2cnn3c(-c4cccc(NC(=O)C5CC5)c4)ccnc23)s1` [Example 252, N-[3-[3-[(5-Methyl-2-thienyl)carbonyl]pyrazolo[1,5-a]pyrimidin-7-yl]phenyl}-cyclopropanecarboxamide] is 1 to 10 µM; for `Cc1cc(C)cc(-c2cnn3c(-c4cccc(-c5nnn(CCN6CCCC6)n5)c4)ccnc23)c1` [Example 498, 3-(3,5-Dimethylphenyl)-7-{3-[2-(2-pyrrolidin-1-ylethyl)-2H-tetrazol-5-yl]phenyl}pyrazolo[1,5-a]pyrimidine] it is 1 to 10 µM; for `CN(C(=O)C1CCC1)c1cccc(-c2ccnc3c(C(=O)c4ccccc4)cnn23)c1` [Example 232, N-[3-(3-Benzoylpyrazolo-[1,5-a]pyrimidin-7-yl)phenyl]-N-methylcyclobutanecarboxamide] it is 10 to 50 µM.
Turning to `Cc1ccc(-c2ccnc3c(C(=O)c4cccs4)cnn23)cc1NC(=O)c1ccccc1` [Example 309, N-{2-Methyl-5-[3-(2-thienylcarbonyl)pyrazolo[1,5-a]pyrimidin-7-yl]phenyl}benzamide], the IC50 lay within 1 to 10 µM.
The same measure, in the same setting: next, `CC(C)CC(=O)Nc1cccc(-c2ccnc3c(-c4cccc(CN(C)C)c4)cnn23)c1` [Example 497, N-[3-(3-{3-[(Dimethylamino)methyl]phenyl}pyrazolo[1,5-a]pyrimidin-7-yl)phenyl]-3-methylbutanamide]: 10 to 50 µM; `O=C(c1ccccc1)c1cnn2c(-c3cccc(N4CCCC4=O)c3)ccnc12` [Example 229, 1-[3-(3-Benzoylpyrazolo[1,5-a]-pyrimidin-7-yl)phenyl]-2-pyrrolidinone]: 10 to 50 µM; `CCOc1cccc(-c2ccnc3c(C(=O)c4cccs4)cnn23)c1` [Example 263, [7-(3-Ethoxyphenyl)pyrazolo[1,5-a]pyrimidin-3-yl]-2-thienyl-methanone]: 1 to 10 µM.
Still for that read-out and setting: next, `CCNc1ccc(-c2ccnc3c(C(=O)c4cccs4)cnn23)cc1` [Example 271, [7-[4-(Ethylamino)phenyl]pyrazolo[1,5-a]pyrimidin-3-yl]-2-thienyl-methanone]: 10 to 50 µM; `CC(C)NC(=O)Nc1cccc(-c2ccnc3c(C(=O)c4ccco4)cnn23)c1` [Example 298, N-{3-[3-(2-Furoyl)pyrazolo[1,5-a]pyrimidin-7-yl]phenyl}-N′-isopropylurea]: under 1 µM.
Same read-out and setting: the figure for `O=C(c1cccs1)c1cnn2c(-c3cccc(NC(=S)Nc4cccc(-c5ccnc6c(C(=O)c7cccs7)cnn56)c4)c3)ccnc12` [Example 406, N,N′-bis {3-[3-(Thien-2-ylcarbonyl)pyrazolo[1,5-a]pyrimidin-7-yl]phenyl}thiourea] is 10 to 50 µM.

Staying with this assay, now noted: Homo sapiens, 120 h; 80S14 p21-deficient cells, 5 days incubation, SRB; read-out: IC50 for 80SI4.
For the compound `Cc1cnc2c(C(=O)c3cccs3)cnn2c1-c1cccc(NC(=O)CC(C)C)c1` [Example 215, 3-methyl-N-{3-[6-methyl-3-(thien-2-ylcarbonyl)pyrazolo[1,5-a]pyrimidin-7-yl]phenyl}butanamide], the IC50 lay within 10 to 50 µM.
On to `O=C(CNC(=O)c1ccccc1)Nc1cccc(-c2ccnc3c(C(=O)c4cccs4)cnn23)c1` [Example 135, N-[2-oxo-2-({3-[3-(thien-2-ylcarbonyl)pyrazolo[1,5-a]pyrimidin-7-yl]phenyl]amino)ethyl]benzamide], for which the IC50 was in the range of 1 to 10 µM.
Same read-out and setting: next, `O=C(Nc1ccccc1)Nc1cccc(-c2ccnc3c(C(=O)c4cccs4)cnn23)c1` [Example 1, N-phenyl-N′-{3-[3-(thien-2-ylcarbonyl)pyrazolo[1,5-a]pyrimidin-7-yl]phenyl}urea]: under 1 µM.
Consider `CC(C)CC(=O)NCC(=O)Nc1cccc(-c2ccnc3c(C(=O)c4cccs4)cnn23)c1` [Example 133, 3-methyl-N-[2-oxo-2-({3-[3-(thien-2-ylcarbonyl)pyrazolo[1,5-a]pyrimidin-7-yl]phenyl}amino)ethyl]butanamide], for which the IC50 fell in the range of 1 to 10 µM.
On the same count and under the same terms, next, `CC(C)S(=O)(=O)Nc1cccc(-c2ccnc3c(C(=O)c4cccs4)cnn23)c1` [Example 30, N-{3-[3-(thien-2-ylcarbonyl)pyrazolo[1,5-a]pyrimidin-7-yl]phenyl} propane-2-sulfonamide]: 1 to 10 µM.
As for `Cc1ccccc1CC(=O)Nc1cccc(-c2ccnc3c(C(=O)c4cccs4)cnn23)c1` [Example 68, 2-(2-methylphenyl)-N-{3-[3-(thien-2-ylcarbonyl)pyrazolo[1,5-a]pyrimidin-7-yl]phenyl}acetamide], the IC50 was under 1 µM.
On the same count and under the same terms, the figure for `C=CCCOC(=O)NCC(=O)Nc1cccc(-c2ccnc3c(C(=O)c4cccs4)cnn23)c1` [Example 118, but-3-enyl-2-oxo-2-({3-[3-(thien-2-ylcarbonyl)pyrazolo[1,5-a]pyrimidin-7-yl]phenyl}amino)ethylcarbamate] is 1 to 10 µM; for `CCOC(=O)C(=O)Nc1cccc(-c2ccnc3c(C(=O)c4cccs4)cnn23)c1` [Example 41, ethyl oxo({3-[3-(thien-2-ylcarbonyl)pyrazolo[1,5-a]pyrimidin-7-yl]phenyl}amino)acetate] it is 10 to 50 µM.
As for `CCNC(=O)Nc1cccc(-c2ccnc3c(C(=O)c4cccs4)cnn23)c1` [Example 5, N-ethyl-N′-{3-[3-(thien-2-ylcarbonyl)pyrazolo[1,5-a]pyrimidin-7-yl]phenyl}urea], the IC50 is under 1 µM.
Still for that read-out and setting: the figure for `O=C(c1cccs1)c1cnn2c(-c3cccc(NS(=O)(=O)c4ccc(Br)cc4)c3)ccnc12` [Example 35, 4-bromo-N-{3-[3-(thien-2-ylcarbonyl)pyrazolo[1,5-a]pyrimidin-7-yl]phenyl}benzenesulfonamide] is 1 to 10 µM.
The same measure, in the same setting: next, `O=C(c1cccs1)c1cnn2c(-c3cccc(NS(=O)(=O)c4cccs4)c3)ccnc12` [Example 38, N-{3-[3-(thien-2-ylcarbonyl)pyrazolo[1,5-a]pyrimidin-7-yl]phenyl}thiophene-2-sulfonamide]: 1 to 10 µM.
For `O=C(CCC1CCCC1)Nc1cccc(-c2ccnc3c(C(=O)c4cccs4)cnn23)c1` [Example 146, 3-cyclopentyl-N-{3-[3-(thien-2-ylcarbonyl)pyrazolo[1,5-a]pyrimidin-7-yl]phenyl}propanamide], the IC50 fell in the range of 1 to 10 µM.
Turning to `CS(=O)(=O)Nc1cccc(-c2ccnc3c(C(=O)c4cccs4)cnn23)c1` [Example 27, N-{3-[3-(thien-2-ylcarbonyl)pyrazolo[1,5-a]pyrimidin-7-yl]phenyl} methanesulfonamide], the IC50 fell in the range of 1 to 10 µM.
